The values that follow come from patent US6403111B1, “Method for preparing aqueous phytosphingosine solution” (Doosan Corporation, priority 2000, dated 2002).

The conditions of data set [1]: cited from earlier work.
The nature of data set [2]: Solubility of phytosphingosine in solvents. It is filed as physicochemical. The conditions noted are these: solvent: mixture of water, lactic acid and a willow bark extract.

Regarding `CCCCCCCCCCCCCC[C@@H](O)[C@@H](O)[C@@H](N)CO` [Phytosphingosine, phytosphingosine], in data set [1] (isocetyl alcohol), the “Solubility in isocetyl alcohol” value was 1 wt %. Moreover, in data set [1] (water), the Solubility in water entry is listed as “not soluble in water at all”. In addition, the “Amount solubilized to give a completely clear solution” value in data set [2] is on record as 5-10 weight %.
